Where “and” joins values, the source holds several entries; their conditions need not be identical. Identical values can stand only once.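 Method: 48-hour compound exposure of cells in 96-well plates, five concentrations, linear interpolation of endpoints. Here, GI50 denotes the concentration required for 50% inhibition of growth. TGI marks complete inhibition of growth.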
Columns and labels:
Assay in all cases: DTP human tumour cell line panel, 48 h
[1] = test system: MALME-3M melanoma
[2] = test system: SNB-75 CNS
[3] = test system: A498 renal
[4] = test system: 786-0 renal
[5] = test system: HCT-15 colon
[6] = test system: LOX IMVI melanoma
[7] = test system: HT29 colon
[8] = test system: TK-10 renal
[9] = test system: HL-60(TB) leukemia
[10] = test system: HCT-116 colon

Structure (SMILES): N#Cc1cccc(Nc2ncc(-c3ccccc3)o2)c1
- GI50 [1]: > 25 µM
- TGI [1]: > 25 µM
- GI50 [2]: 10.8 µM
- TGI [2]: > 22.6 µM
- GI50 [3]: > 22.2 µM
- TGI [3]: > 25 µM
- GI50 [4]: 12.9 µM
- TGI [4]: > 25 µM
- GI50 [5]: 16.8 µM
- TGI [5]: > 25 µM
- GI50 [6]: 9.47 µM
- TGI [6]: > 25 µM
- GI50 [7]: > 25 µM
- TGI [7]: > 25 µM
- GI50 [8]: 16.5 µM
- TGI [8]: > 25 µM
- GI50 [9]: 11 µM
- TGI [9]: > 25 µM
- GI50 [10]: 9.02 µM
- TGI [10]: > 25 µM

Structure (SMILES): COc1cc2c(cc1NC(=O)C(Cl)Cl)-c1ccc(NC(=O)C(Cl)Cl)cc1C2
- GI50 [1]: 14 µM
- TGI [1]: 31.6 µM
- GI50 [2]: 0.758 µM
- TGI [2]: 3.19 µM
- GI50 [3]: 0.551 µM
- TGI [3]: 1.89 µM
- GI50 [4]: 1.27 µM
- TGI [4]: 3.92 µM
- GI50 [5]: 0.354 µM
- TGI [5]: 1.94 µM
- GI50 [6]: 5.43 µM
- TGI [6]: 18.1 µM
- GI50 [7]: 0.201 µM
- TGI [7]: 0.641 µM
- GI50 [8]: 0.687 µM
- TGI [8]: 2.53 µM
- GI50 [9]: 0.568 µM
- TGI [9]: 3.37 µM
- GI50 [10]: 0.136 µM
- TGI [10]: 0.271 µM

Structure (SMILES): COC1=C(OC)[C@]2(OC)c3c(O)c(OC)c4c(c3O[C@@]23O[C@@H](c2ccccc2)CC=C3C1=O)[C@@H](OC)C[C@H](c1ccccc1)O4
- GI50 [1]: 0.377 µM
- TGI [1]: 1.38 µM
- GI50 [2]: 1.36 µM
- TGI [2]: 2.79 µM
- GI50 [3]: 1.51 µM
- TGI [3]: 2.94 µM
- GI50 [4]: 0.292 µM
- TGI [4]: 0.801 µM
- GI50 [5]: 0.29 µM
- TGI [5]: 0.819 µM
- GI50 [6]: 1.58 µM
- TGI [6]: 3.31 µM
- GI50 [7]: 0.235 µM
- TGI [7]: 0.612 µM
- GI50 [8]: 0.821 µM
- TGI [8]: 1.93 µM
- GI50 [9]: 0.53 µM
- TGI [9]: 1.4 µM
- GI50 [10]: 0.226 µM
- TGI [10]: 0.517 µM

Structure (SMILES): C/C(=N\NC(=S)N1CCN(c2ccccn2)CC1)c1ncccn1
- GI50 [1]: 0.55 µM
- TGI [1]: 5.93 µM and 18.3 µM
- GI50 [2]: 4.48 µM
- TGI [2]: 20.3 µM
- TGI [3]: 6.19 µM and 16.2 µM
- GI50 [4]: 0.0742 µM
- TGI [4]: 15.7 µM
- GI50 [5]: 0.013 µM
- TGI [5]: 5.48 µM and 16.7 µM
- GI50 [6]: < 0.0183 µM
- TGI [6]: 9.45 µM and 2.53 µM
- GI50 [7]: < 0.0263 µM
- TGI [7]: 7.55 µM and 14.9 µM
- GI50 [8]: 1.71 µM
- TGI [8]: 18.5 µM
- TGI [9]: 0.0274 µM and 0.103 µM
- TGI [10]: 5.05 µM and 14.7 µM

Structure (SMILES): O=C(c1c(O)cc(O)cc1O)C1Cc2ccccc21 (configuration not stated)
- TGI [1]: > 100 µM
- TGI [2]: 60.9 µM
- TGI [3]: > 100 µM
- TGI [4]: > 100 µM
- TGI [5]: > 100 µM
- TGI [6]: > 100 µM
- TGI [7]: > 100 µM
- TGI [8]: > 100 µM
- TGI [9]: > 100 µM
- TGI [10]: > 100 µM

Structure (SMILES): COc1c(OC(C)C)cc2cc(O)c(C(=O)NC3Cc4ccc(c(Cl)n4)O[C@@H]4C=C5C#C/C(=C\C#CC6OC56C4OC4CC(C)(O)C(O)C(C)O4)C(OC4CC(O)C(N(C)C)C(C)O4)COC3=O)cc2c1OC (some centres not stated)
- GI50 [1]: 0.533 µg/mL
- TGI [1]: > 36.3 µM and 37.5 µg/mL
- GI50 [2]: 4.43 µg/mL
- TGI [2]: > 36.3 µM and 19.1 µg/mL
- GI50 [3]: 0.168 µg/mL
- TGI [3]: > 36.3 µM and 8.7 µg/mL
- GI50 [4]: 7.1 µM and 0.244 µg/mL
- TGI [4]: > 36.3 µM and 2.79 µg/mL
- GI50 [5]: > 36.3 µM and 9.57 µg/mL
- TGI [5]: > 36.3 µM and 37.5 µg/mL
- GI50 [6]: 0.529 µg/mL
- TGI [6]: 17.8 µg/mL
- GI50 [7]: > 36.3 µM and 0.714 µg/mL
- TGI [7]: > 36.3 µM and 37.5 µg/mL
- GI50 [8]: > 36.3 µM and 37.5 µg/mL
- TGI [8]: > 36.3 µM and 37.5 µg/mL
- GI50 [9]: 27.5 µM and 0.019 µg/mL
- TGI [9]: > 36.3 µM and 0.336 µg/mL
- GI50 [10]: 0.584 µg/mL
- TGI [10]: 15.7 µg/mL

Structure (SMILES): COc1ccc2nc3cc(Cl)ccc3c(N3CCN(c4ccnc(N5CCN(C)CC5)n4)CC3)c2c1
- GI50 [1]: 2.2 µM
- TGI [1]: 4 µM
- GI50 [2]: 1.47 µM
- TGI [2]: 3.05 µM
- GI50 [3]: 10.3 µM
- TGI [3]: 40.7 µM
- GI50 [4]: 1.61 µM
- TGI [4]: 3 µM
- GI50 [5]: 1.6 µM
- TGI [5]: 3.21 µM
- GI50 [6]: 1.89 µM
- TGI [6]: 3.45 µM
- GI50 [7]: 1.74 µM
- TGI [7]: 3.67 µM
- GI50 [8]: 1.76 µM
- TGI [8]: 3.2 µM
- GI50 [9]: 2.14 µM
- TGI [9]: 5.03 µM
- GI50 [10]: 1.61 µM
- TGI [10]: 3.05 µM

Structure (SMILES): CC1CCN(CCOc2ccc(CNc3ccc4nc(CCC5CCCCC5)[nH]c4c3)cc2)CC1
- GI50 [1]: 1.71 µM
- TGI [1]: 3.17 µM
- GI50 [2]: 1.59 µM
- TGI [2]: 3.55 µM
- GI50 [3]: 1.77 µM
- TGI [3]: 3.7 µM
- GI50 [4]: 1.43 µM
- TGI [4]: 2.79 µM
- GI50 [5]: 1.43 µM
- TGI [5]: 3.03 µM
- GI50 [6]: 1.67 µM
- TGI [6]: 3.1 µM
- GI50 [7]: 1.15 µM
- TGI [7]: 2.81 µM
- GI50 [8]: 2.24 µM
- TGI [8]: 4.92 µM
- GI50 [9]: 1.83 µM
- TGI [9]: 3.99 µM
- GI50 [10]: 1.4 µM
- TGI [10]: 2.72 µM

Structure (SMILES): CC(C)N(Cc1ccc(F)cc1)c1ccc(CO)c(Cl)c1
- GI50 [1]: 14.4 µM
- TGI [1]: 30.3 µM
- GI50 [2]: 9.21 µM
- TGI [2]: 23.3 µM
- GI50 [3]: 0.0225 µM
- TGI [3]: 0.134 µM
- GI50 [4]: 7 µM
- TGI [4]: 22.1 µM
- GI50 [5]: 5.23 µM
- TGI [5]: 20.7 µM
- GI50 [6]: 8.35 µM
- TGI [6]: 21.6 µM
- GI50 [7]: 1.81 µM
- TGI [7]: 14.1 µM
- GI50 [8]: 0.0283 µM
- TGI [8]: 0.173 µM
- GI50 [9]: 3.15 µM
- TGI [9]: 21.8 µM
- GI50 [10]: 0.0415 µM
- TGI [10]: 3.75 µM

Structure (SMILES): O=S(=O)(NCCCNc1nccc(-c2c(-c3ccc(F)cc3)nc3sccn23)n1)c1ccc(F)cc1
- GI50 [1]: 9.06 µM
- TGI [1]: 94.4 µM
- GI50 [2]: 2.16 µM
- TGI [2]: 16.9 µM
- GI50 [3]: 2.25 µM
- TGI [3]: 45.6 µM
- GI50 [4]: 11 µM
- TGI [4]: > 100 µM
- GI50 [5]: 3.92 µM
- TGI [5]: > 100 µM
- GI50 [6]: 6.28 µM
- TGI [6]: > 100 µM
- GI50 [7]: 3.52 µM
- TGI [7]: 21.4 µM
- GI50 [8]: 19.2 µM
- TGI [8]: > 100 µM
- GI50 [9]: 8.38 µM
- TGI [9]: > 100 µM
- GI50 [10]: 5.55 µM
- TGI [10]: > 100 µM

Structure (SMILES): CN(C)c1nc(N)c(C#N)c(C#N)c1C#N
- TGI [1]: > 10 µM
- TGI [2]: > 10 µM
- TGI [3]: > 10 µM
- TGI [4]: > 10 µM
- TGI [5]: > 10 µM
- TGI [6]: > 10 µM
- TGI [7]: > 10 µM
- TGI [8]: > 10 µM
- TGI [9]: > 6.07 µM
- TGI [10]: > 10 µM

Structure (SMILES): CC(C)OC(=O)C1Cc2c([nH]c3ccccc23)C(c2ccccc2)N1 (configuration not stated)
- TGI [1]: 73.4 µM
- TGI [2]: 86.5 µM
- TGI [3]: > 100 µM
- TGI [4]: > 100 µM
- TGI [5]: > 100 µM
- TGI [6]: > 100 µM
- TGI [7]: > 100 µM
- TGI [8]: > 100 µM
- TGI [9]: > 100 µM
- TGI [10]: > 100 µM

Structure (SMILES): CN1CCCC1c1cccnc1.O=C(O)c1ccccc1O.O=C([O-])c1ccccc1[OH2+].O=C([O-])c1ccccc1[OH2+].[Mn+2] (configuration not stated)
- GI50 [1]: 33.1 µM
- TGI [1]: 76.6 µM
- GI50 [2]: > 100 µM
- TGI [2]: > 100 µM
- GI50 [3]: > 100 µM
- TGI [3]: > 100 µM
- GI50 [4]: > 100 µM
- TGI [4]: > 100 µM
- GI50 [5]: > 100 µM
- TGI [5]: > 100 µM
- GI50 [6]: > 100 µM
- TGI [6]: > 100 µM
- GI50 [7]: 98 µM
- TGI [7]: > 100 µM
- GI50 [8]: > 100 µM
- TGI [8]: > 100 µM
- GI50 [9]: > 100 µM
- TGI [9]: > 100 µM
- GI50 [10]: > 100 µM
- TGI [10]: > 100 µM

From PubChem BioAssay (NCI)
